Experimental data: ChEMBL document CHEMBL1144524, “Discovery of 7alpha-substituted dihydrotestosterones as androgen receptor pure antagonists and their structure-activity relationships” (Bioorg Med Chem, 2007)
The source made the active and inactive calls. The calls are words filed in the database; no cut-off is given here.

How the values were obtained:
Androgen receptor [1] = target: T1, Androgen receptor (Homo sapiens, UniProt P10275)
T1 sequence (P10275 whole entry): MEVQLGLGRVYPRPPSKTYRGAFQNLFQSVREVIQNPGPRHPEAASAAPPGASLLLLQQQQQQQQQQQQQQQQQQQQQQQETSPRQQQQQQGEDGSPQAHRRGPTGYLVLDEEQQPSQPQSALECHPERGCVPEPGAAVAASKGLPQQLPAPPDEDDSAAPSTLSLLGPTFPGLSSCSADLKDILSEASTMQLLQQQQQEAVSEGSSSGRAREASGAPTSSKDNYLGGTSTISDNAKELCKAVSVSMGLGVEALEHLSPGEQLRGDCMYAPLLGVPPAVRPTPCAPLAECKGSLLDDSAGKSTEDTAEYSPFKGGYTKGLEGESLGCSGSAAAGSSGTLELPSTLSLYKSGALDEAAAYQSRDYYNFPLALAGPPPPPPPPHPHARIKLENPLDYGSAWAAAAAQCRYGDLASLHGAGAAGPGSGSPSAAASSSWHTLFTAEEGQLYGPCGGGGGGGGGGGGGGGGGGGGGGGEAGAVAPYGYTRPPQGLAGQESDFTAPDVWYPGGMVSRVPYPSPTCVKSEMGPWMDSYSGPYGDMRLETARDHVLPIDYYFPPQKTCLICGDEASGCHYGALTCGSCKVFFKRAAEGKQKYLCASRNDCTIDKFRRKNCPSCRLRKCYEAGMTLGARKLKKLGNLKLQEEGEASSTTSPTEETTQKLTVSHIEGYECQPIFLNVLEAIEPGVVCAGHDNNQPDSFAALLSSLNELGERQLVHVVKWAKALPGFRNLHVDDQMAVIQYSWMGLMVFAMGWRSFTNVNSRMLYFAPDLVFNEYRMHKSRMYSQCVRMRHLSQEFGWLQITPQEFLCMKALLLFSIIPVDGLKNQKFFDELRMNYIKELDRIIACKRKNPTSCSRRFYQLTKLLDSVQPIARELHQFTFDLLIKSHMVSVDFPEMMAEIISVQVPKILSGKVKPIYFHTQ
Description: Antagonist activity at androgen receptor expressed in HeLa cells assessed as inhibition of dihydrotestosterone-induced transcriptional activity by reporter gene assay

[2] = target: T2, Androgen receptor (Homo sapiens) (UniProt P10275); settings: HeLa
T2 sequence (whole entry): T1 sequence (P10275 whole entry)
Description: Agonist activity at androgen receptor expressed in HeLa cells assessed as effect on dihydrotestosterone-induced transcriptional activity by reporter gene assay

Androgen receptor [3] = target: T1, Androgen receptor; assay: biochemical
Description: Displacement of [3H]mibolerone from androgen receptor expressed in CHOK1 cells

Mus musculus [4] = assay: Effect on po dosed seminal vesicle wet weight in mouse; format: functional, organism-based
Mus musculus [5] = assay: Effect on subcutaneously dosed seminal vesicle wet weight in mouse; format: functional, organism-based

SMILES | IC50 (Androgen receptor [1]) [nM] | FI5 [2] [nM] | IC50 (Androgen receptor [3]) [nM] | Activity (Mus musculus [4]) | Activity (Mus musculus [5])
CC(C)N(C)C(=O)CCCCCCCC1C[C@H]2CC(=O)CC[C@]2(C)[C@H]2CC[C@]3(C)[C@@H](O)CC[C@H]3[C@H]12 (some centres not stated) | 420 | > 10000 | 430 |  | 
C[C@]12CCC(=O)C[C@@H]1CC(CCCCCCCC(=O)N1CCOCC1)[C@@H]1[C@@H]2CC[C@]2(C)[C@@H](O)CC[C@@H]12 (some centres not stated) |  | > 10000 |  |  | 
C[C@]12CCC(=O)C[C@@H]1CC(CCCCCCCC(=O)N1CCCC1)[C@@H]1[C@@H]2CC[C@]2(C)[C@@H](O)CC[C@@H]12 (some centres not stated) | 300 | > 10000 | 350 |  | 
CCCCCCNC(=O)CCCCCCCC1C[C@H]2CC(=O)CC[C@]2(C)[C@H]2CC[C@]3(C)[C@@H](O)CC[C@H]3[C@H]12 (some centres not stated) | 6600 | > 10000 | 2100 |  | 
CN(C)C(=O)CCCCCCCC1C[C@H]2CC(=O)CC[C@]2(C)[C@H]2CC[C@]3(C)[C@@H](O)CC[C@H]3[C@H]12 (some centres not stated) | 190 | > 10000 | 260 | Active | Active
CCCCN(C)C(=O)CCCCCCCCCC[C@@H]1CC2CC(=O)CC[C@]2(C)[C@H]2CC[C@]3(C)[C@@H](O)CC[C@H]3[C@H]12 (some centres not stated) | 1300 | 1900 | 1900 |  | 
CCCCN(C)C(=O)CCCCCCCC1C[C@H]2CC(=O)CC[C@]2(C)[C@H]2CC[C@]3(C)[C@@H](O)CC[C@H]3[C@H]12 (some centres not stated) | 340 | > 10000 | 280 |  | 
C[C@]12CCC(=O)C[C@@H]1CC(CCCCCCCC(=O)N1CCCCC1)[C@@H]1[C@@H]2CC[C@]2(C)[C@@H](O)CC[C@@H]12 (some centres not stated) |  | > 10000 |  |  | 
C[C@]12CC[C@H]3[C@@H]([C@H](CCCCC[S+]([O-])CCCC(F)(F)C(F)(F)F)CC4CC(=O)CC[C@@]43C)[C@@H]1CC[C@@H]2O (some centres not stated) | > 10000 | 16 | 6800 |  | 
CN(Cc1ccccc1)C(=O)CCCCCCCC1C[C@H]2CC(=O)CC[C@]2(C)[C@H]2CC[C@]3(C)[C@@H](O)CC[C@H]3[C@H]12 (some centres not stated) |  | > 10000 |  |  | 
CCN(CC)C(=O)CCCCCCCC1C[C@H]2CC(=O)CC[C@]2(C)[C@H]2CC[C@]3(C)[C@@H](O)CC[C@H]3[C@H]12 (some centres not stated) | 300 | > 10000 | 120 |  | 
CNC(=O)CCCCCCCC1C[C@H]2CC(=O)CC[C@]2(C)[C@H]2CC[C@]3(C)[C@@H](O)CC[C@H]3[C@H]12 (some centres not stated) | 480 | > 10000 | 710 |  | 
CCCN(C)C(=O)CCCCCCCC1C[C@H]2CC(=O)CC[C@]2(C)[C@H]2CC[C@]3(C)[C@@H](O)CC[C@H]3[C@H]12 (some centres not stated) | 1100 | > 10000 | 300 |  | 
C[C@]12CC[C@H]3[C@@H]([C@H](CCCCCCCCCCCCC[S+]([O-])CCCC(F)(F)C(F)(F)F)CC4CC(=O)CC[C@@]43C)[C@@H]1CC[C@@H]2O (some centres not stated) | 10000 | > 10000 | > 10000 |  | 
C[C@]12CC[C@H]3[C@@H]([C@H](CCCCCCCCCCC[S+]([O-])CCCC(F)(F)C(F)(F)F)CC4CC(=O)CC[C@@]43C)[C@@H]1CC[C@@H]2O (some centres not stated) | > 10000 | > 10000 | > 10000 |  | 
C[C@]12CC[C@H]3[C@@H]([C@H](CCCCCCCCC[S+]([O-])CCCC(F)(F)C(F)(F)F)CC4CC(=O)CC[C@@]43C)[C@@H]1CC[C@@H]2O (some centres not stated) | 2900 | 490 | 110 |  | 
CN(C)C(=O)CCCCCCC1C[C@H]2CC(=O)CC[C@]2(C)[C@H]2CC[C@]3(C)[C@@H](O)CC[C@H]3[C@H]12 (some centres not stated) | 200 | 490 | 110 |  | 
CCCCN(C)C(=O)CCCCCCCCC[C@@H]1CC2CC(=O)CC[C@]2(C)[C@H]2CC[C@]3(C)[C@@H](O)CC[C@H]3[C@H]12 (some centres not stated) | 1800 | 570 | 570 |  | 
CCCCN(C)C(=O)CCCCCCCC[C@@H]1CC2CC(=O)CC[C@]2(C)[C@H]2CC[C@]3(C)[C@@H](O)CC[C@H]3[C@H]12 (some centres not stated) | 3400 | 550 | 550 |  | 
CCCCN(C)C(=O)CCCCCCC[C@@H]1CC2CC(=O)CC[C@]2(C)[C@H]2CC[C@]3(C)[C@@H](O)CC[C@H]3[C@H]12 (some centres not stated) | 340 | 280 | 280 |  | 
CCN(C)C(=O)CCCCCCCC1C[C@H]2CC(=O)CC[C@]2(C)[C@H]2CC[C@]3(C)[C@@H](O)CC[C@H]3[C@H]12 (some centres not stated) | 420 | > 10000 | 660 |  | 
CCCCN(C)C(=O)CCCCCCCCCCC[C@@H]1CC2CC(=O)CC[C@]2(C)[C@H]2CC[C@]3(C)[C@@H](O)CC[C@H]3[C@H]12 (some centres not stated) | 3500 | 9900 | 9900 |  | 
CCCCCCN(CCCCCC)C(=O)CCCCCCCC1C[C@H]2CC(=O)CC[C@]2(C)[C@H]2CC[C@]3(C)[C@@H](O)CC[C@H]3[C@H]12 (some centres not stated) | > 10000 | > 10000 | > 10000 |  | 
CCCCNC(=O)CCCCCCCC1C[C@H]2CC(=O)CC[C@]2(C)[C@H]2CC[C@]3(C)[C@@H](O)CC[C@H]3[C@H]12 (some centres not stated) | 6300 | 1600 |  |  | 
C[C@]12CCC(=O)C[C@@H]1CC(CCCCCCCC(N)=O)[C@@H]1[C@@H]2CC[C@]2(C)[C@@H](O)CC[C@@H]12 (some centres not stated) | 450 | 2400 | 260 |  | 
CCN(CC)C(=O)CCCCCCC1C[C@H]2CC(=O)CC[C@]2(C)[C@H]2CC[C@]3(C)[C@@H](O)CC[C@H]3[C@H]12 (some centres not stated) | 530 | 1700 | 330 |  | 
C[C@]12CC[C@H]3[C@@H]([C@H](CCCCCCC[S+]([O-])CCCC(F)(F)C(F)(F)F)CC4CC(=O)CC[C@@]43C)[C@@H]1CC[C@@H]2O (some centres not stated) | > 10000 | 200 | 960 |  | 
CCCNC(=O)CCCCCCCC1C[C@H]2CC(=O)CC[C@]2(C)[C@H]2CC[C@]3(C)[C@@H](O)CC[C@H]3[C@H]12 (some centres not stated) | 1800 | > 10000 | 1600 |  | 
CCNC(=O)CCCCCCCC1C[C@H]2CC(=O)CC[C@]2(C)[C@H]2CC[C@]3(C)[C@@H](O)CC[C@H]3[C@H]12 (some centres not stated) | 940 | > 10000 | 1500 |  | 
